Reference: ChEMBL document CHEMBL5620345, “Metal binding pharmacophore click-derived discovery of new broad-spectrum metallo-β-lactamase inhibitors” (Eur J Med Chem, 2023)

Columns and labels:
[1] = Inhibition of recombinant his tagged IMP1 (unknown origin) expressed in Escherichia coli (DE3) cells using FC5 as substrate by microplate reader assay
[2] = Inhibition of recombinant NDM1 (unknown origin) expressed in Escherichia coli (DE3) cells using FC5 as substrate by microplate reader assay
[3] = Inhibition of recombinant VIM-1 (unknown origin) expressed in Escherichia coli (DE3) cells using FC5 as substrate by microplate reader assay
[4] = Inhibition of recombinant his tagged VIM-2 (unknown origin) expressed in Escherichia coli (DE3) cells using FC5 as substrate by microplate reader assay
[5] = Inhibition of recombinant VIM-5 (unknown origin) expressed in Escherichia coli (DE3) cells using FC5 as substrate by microplate reader assay
Escherichia coli [6] = assay: Antibacterial activity against Escherichia coli BAA2452 expressing blaNDM-1 clinical isolates assessed as meropenem MIC incubated for 16 to 18 hrs by broth microdilution method; format: functional; conditions: time 16-18 hrs; note: test concentration or dose not given here
Enterobacterales [7] = assay: Antibacterial activity against Carbapenem-Resistant Enterobacterales 19 expressing blaNDM-1 clinical isolates assessed as meropenem MIC incubated for 16 to 18 hrs by broth microdilution method; format: functional; conditions: time 16-18 hrs; note: test concentration or dose not given here
Klebsiella pneumoniae [8] = assay: Antibacterial activity against Klebsiella pneumoniae BAA2470 expressing blaNDM-1 clinical isolates assessed as meropenem MIC incubated for 16 to 18 hrs by broth microdilution method; format: functional; conditions: time 16-18 hrs; note: test concentration or dose not given here
Escherichia coli [9] = assay: Antibacterial activity against Escherichia coli C1580 expressing blaIMP-1 clinical isolates assessed as meropenem MIC incubated for 16 to 18 hrs by broth microdilution method; format: functional; conditions: time 16-18 hrs; note: test concentration or dose not given here
Escherichia coli [10] = assay: Antibacterial activity against Escherichia coli C1541 expressing blaVIM-2 clinical isolates assessed as meropenem MIC incubated for 16 to 18 hrs by broth microdilution method; format: functional; conditions: time 16-18 hrs; note: test concentration or dose not given here
Escherichia coli [11] = assay: Antibacterial activity against Escherichia coli BAA2452 expressing blaNDM-1 clinical isolates assessed as fold potentiation incubated for 16 to 18 hrs by broth microdilution method; format: functional; conditions: time 16-18 hrs; note: test concentration or dose not given here
Enterobacterales [12] = assay: Antibacterial activity against Carbapenem-Resistant Enterobacterales 19 expressing blaNDM-1 clinical isolates assessed as fold potentiation incubated for 16 to 18 hrs by broth microdilution method; format: functional; conditions: time 16-18 hrs; note: test concentration or dose not given here
Klebsiella pneumoniae [13] = assay: Antibacterial activity against Klebsiella pneumoniae BAA2470 expressing blaNDM-1 clinical isolates assessed as fold potentiation incubated for 16 to 18 hrs by broth microdilution method; format: functional; conditions: time 16-18 hrs; note: test concentration or dose not given here
Escherichia coli [14] = assay: Antibacterial activity against Escherichia coli C1580 expressing blaIMP-1 clinical isolates assessed as fold potentiation incubated for 16 to 18 hrs by broth microdilution method; format: functional; conditions: time 16-18 hrs; note: test concentration or dose not given here
Escherichia coli [15] = assay: Antibacterial activity against Escherichia coli C1541 expressing blaVIM-2 clinical isolates assessed as fold potentiation incubated for 16 to 18 hrs by broth microdilution method; format: functional; conditions: time 16-18 hrs; note: test concentration or dose not given here

| Compound | IC50 [1] | IC50 [2] | IC50 [3] | IC50 [4] | IC50 [5] | MIC (Escherichia coli [6]) | MIC (Enterobacterales [7]) | MIC (Klebsiella pneumoniae [8]) | MIC (Escherichia coli [9]) | MIC (Escherichia coli [10]) | fold change (FC) (Escherichia coli [11]) | fold change (FC) (Enterobacterales [12]) | fold change (FC) (Klebsiella pneumoniae [13]) | fold change (FC) (Escherichia coli [14]) | fold change (FC) (Escherichia coli [15]) |
| --- | --- | --- | --- | --- | --- | --- | --- | --- | --- | --- | --- | --- | --- | --- | --- |
| Nc1cccc(-c2cn(-c3cccc(CP(=O)(O)O)c3)nn2)c1 | 1960 nM | 7270 nM | 2210 nM | 92 nM | 19 nM | 32 µg/mL | 16 µg/mL | 128 µg/mL | 2 µg/mL | 4 µg/mL | 4 | 4 | >1 | 16 | 4 |
| O=P(O)(O)Cc1cccc(-n2cc(-c3ccc(Br)cc3)nn2)c1 | 3280 nM | 11200 nM | 11400 nM | 76 nM | 50 nM | 32 µg/mL | 16 µg/mL | 128 µg/mL | 2 µg/mL | 4 µg/mL | 4 | 4 | >1 | 16 | 4 |
| CCCc1ccc(C(c2cccc(-n3cc(-c4cccc(N)c4)nn3)c2)P(=O)(O)O)cc1 (stereo not given) | 190 nM | 460 nM | 530 nM | 14 nM | 0.56 nM | 16 µg/mL | 8 µg/mL | 64 µg/mL | 2 µg/mL | 2 µg/mL | 8 | 8 | >2 | 16 | 8 |
| COc1ccc(C(c2cccc(-n3cc(-c4cccc(N)c4)nn3)c2)P(=O)(O)O)cc1 (stereo not given) | 3250 nM | 8090 nM | 1240 nM | 52 nM | 25 nM | 16 µg/mL | 8 µg/mL | 64 µg/mL | 1 µg/mL | 2 µg/mL | 8 | 8 | >2 | 32 | 8 |
| Cc1ccc(C(c2cccc(-n3cc(-c4cccc(N)c4)nn3)c2)P(=O)(O)O)cc1 (stereo not given) | 27 nM | 1070 nM | 620 nM | 0.82 nM | 1 nM | 8 µg/mL | 8 µg/mL | 64 µg/mL | 1 µg/mL | 1 µg/mL | 16 | 8 | >2 | 32 | 16 |
| Nc1ccccc1-c1cn(-c2cccc(CP(=O)(O)O)c2)nn1 | 6500 nM | 7710 nM | 5610 nM | 13 nM | 510 nM | 32 µg/mL | 8 µg/mL | 128 µg/mL | 2 µg/mL | 1 µg/mL | 4 | 8 | >1 | 16 | 16 |
| CCc1ccc(C(c2cccc(-n3cc(-c4cccc(N)c4)nn3)c2)P(=O)(O)O)cc1 (stereo not given) | 170 nM | 650 nM | 1370 nM | 6 nM | 7 nM | 8 µg/mL | 8 µg/mL | 64 µg/mL | 4 µg/mL | 1 µg/mL | 16 | 8 | >2 | 8 | 16 |
| Nc1cccc(-c2cn(-c3cccc(C(c4ccc(F)cc4)P(=O)(O)O)c3)nn2)c1 (stereo not given) | 700 nM | 2000 nM | 440 nM | 6 nM | 1 nM | 16 µg/mL | 8 µg/mL | 64 µg/mL | 2 µg/mL | 0.5 µg/mL | 8 | 8 | >2 | 16 | 32 |
| Nc1cccc(-c2cn(-c3cccc(C(c4ccc(Cl)cc4)P(=O)(O)O)c3)nn2)c1 (stereo not given) | 540 nM | 670 nM | 340 nM | 1 nM | 0.43 nM | 16 µg/mL | 8 µg/mL | 64 µg/mL | 2 µg/mL | 1 µg/mL | 8 | 8 | >2 | 16 | 16 |
| CSc1ccc(C(c2cccc(-n3cc(-c4cccc(N)c4)nn3)c2)P(=O)(O)O)cc1 (stereo not given) | 110 nM | 500 nM | 640 nM | 1 nM | 0.12 nM | 16 µg/mL | 8 µg/mL | 64 µg/mL | 2 µg/mL | 1 µg/mL | 8 | 8 | >2 | 16 | 16 |
| Nc1cccc(-c2cn(-c3cccc(C(c4ccc(Br)cc4)P(=O)(O)O)c3)nn2)c1 (stereo not given) | 440 nM | 660 nM | 200 nM | 7 nM | 3 nM | 16 µg/mL | 8 µg/mL | 64 µg/mL | 4 µg/mL | 1 µg/mL | 8 | 8 | >2 | 8 | 16 |
| N#Cc1ccc(C(c2cccc(-n3cc(-c4cccc(N)c4)nn3)c2)P(=O)(O)O)cc1 (stereo not given) | 110 nM | 1120 nM | 270 nM | 52 nM | 3 nM | 16 µg/mL | 8 µg/mL | 64 µg/mL | 2 µg/mL | 2 µg/mL | 8 | 8 | >2 | 16 | 8 |
| CCCCc1ccc(C(c2cccc(-n3cc(-c4cccc(N)c4)nn3)c2)P(=O)(O)O)cc1 (stereo not given) | 295 nM | 150 nM | 460 nM | 15 nM | 1 nM | 8 µg/mL | 8 µg/mL | 64 µg/mL | 1 µg/mL | 2 µg/mL | 16 | 8 | >2 | 32 | 8 |
